Reference: patent US10219516B2, “Molecules having pesticidal utility, and intermediates, compositions, and processes, related thereto” (priority 2015, dated 2019)

What was measured:
Type in all cases: in vivo
[1] = test system: Cabbage Looper (Trichoplusia ni, TRIPNI); assay: Bioassay on Cabbage Looper (CL), 128-well diet tray assay; conditions: Trichoplusia ni; Species CL (Cabbage Looper); read-out: CL (Biological Results, rating)
In short: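 Second-instar larvae, one to five per well, placed on artificial diet treated with 50 μg/cm^2 test molecule in 90:10 acetone-water, dried before infestation. Held 5–7 days at 25° C, 14:10 light-dark; percent mortality averaged over eight wells.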

[2] = test system: Beet Armyworm (Spodoptera exigua, LAPHEG); assay: Bioassay on Beet Armyworm (BAW), 128-well diet tray assay; conditions: Species BAW (Beet Armyworm), read-out: BAW (Biological Results, rating)
In short: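 Diet in each of eight wells received 50 μg/cm^2 of test molecule (90:10 acetone-water, dried), then one to five second-instar larvae were added. Mortality (%) was scored after five to seven days at 25° C. under 14:10 light-dark and averaged across the wells.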

[3] = test system: Green Peach Aphid (Myzus persicae, MYZUPE); assay: Bioassay on Green Peach Aphid (GPA), foliar spray on infested cabbage seedlings; conditions: foliar, 72 h, Species GPA (Green Peach Aphid), read-out: GPA (Biological Results, rating)
In short: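 Cabbage seedlings (2-3 true leaves) infested with 20-50 wingless adult and nymph aphids one day before treatment; sprayed to runoff at 200 ppm in 0.025% Tween 20 water with 20% acetone/methanol, four pots per treatment. Held three days at about 25° C; live aphids counted, % control by Abbott's correction versus solvent check.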

[4] = test system: Yellow Fever Mosquito (Aedes aegypti, AEDSAE); assay: Bioassay on Yellow Fever Mosquito (YFM), 96-well plate larval assay; conditions: Species YFM (Yellow Fever Mosquito)
In short: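 Aedes aegypti larvae (about 1 day old) in liver-powder water were added to plates dispensed from DMSO master plates (4000 ppm stock) diluted with 90:10 water/acetone; six replicate plates per master. Lidded plates were held at room temperature for 3 days, then each well was scored for mortality.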

SMILES | pest or weed control at 50 µg/cm2 [1] [%] | pest or weed control at 50 µg/cm2 [2] [%] | pest or weed control at 200 µg/mL [3] [%] | YFM (Biological Results, rating) [4]
N#Cc1ccc(NC(=O)c2cc(NC(=O)[C@H]3[C@H](c4cc(Cl)cc(Cl)c4)C3(Cl)Cl)ccc2Cl)cn1 (relative stereo) [F33, trans-2-Chloro-N-(6-cyanopyridin-3-yl)-5-(2,2-dichloro-3-(3,5-dichlorophenyl)cyclopropane-1-carboxamido)benzamide] | 50 to 100 | 50 to 100 | 0 to 80 | A (80-100)
CN(C(=O)c1cc(NC(=O)[C@H]2[C@H](c3cc(Cl)cc(Cl)c3)C2(Cl)Cl)ccc1Cl)c1cccc(F)c1 (relative stereo) [F34, trans-2-Chloro-5-(2,2-dichloro-3-(3,5-dichlorophenyl)cyclopropane-1-carboxamido)-N-(3-fluorophenyl)-N-methylbenzamide] | 50 to 100 | 50 to 100 | 0 to 80 | A (80-100)
CN(C(=O)c1cc(NC(=O)[C@H]2[C@H](c3cc(Cl)cc(Cl)c3)C2(Cl)Cl)ccc1Cl)c1ccccc1F (relative stereo) [F35, trans-2-Chloro-5-(2,2-dichloro-3-(3,5-dichlorophenyl)cyclopropane-1-carboxamido)-N-(2-fluorophenyl)-N-methylbenzamide] | 50 to 100 | 50 to 100 | 80 to 100 | A (80-100)
Cc1cc(C#N)ccc1NC(=O)c1cc(NC(=O)[C@H]2[C@H](c3cc(Cl)cc(Cl)c3)C2(Cl)Cl)ccc1Cl (relative stereo) [F36, trans-2-Chloro-N-(4-cyano-2-methylphenyl)-5-(2,2-dichloro-3-(3,5-dichlorophenyl)cyclopropane-1-carboxamido)benzamide] | 50 to 100 | 50 to 100 | 0 to 80 | A (80-100)
Cc1cc(F)ccc1NC(=O)c1cc(NC(=O)[C@H]2[C@H](c3cc(Cl)cc(Cl)c3)C2(Cl)Cl)ccc1Cl (relative stereo) [F37, trans-2-Chloro-5-(2,2-dichloro-3-(3,5-dichlorophenyl)cyclopropane-1-carboxamido)-N-(4-fluoro-2-methylphenyl)benzamide] | 50 to 100 | 50 to 100 | 80 to 100 | A (80-100)
O=C(Nc1ccccc1Cl)c1cc(NC(=O)[C@H]2[C@H](c3cc(Cl)cc(Cl)c3)C2(Cl)Cl)ccc1Cl (relative stereo) [F38, trans-2-Chloro-N-(2-chlorophenyl)-5-(2,2-dichloro-3-(3,5-dichlorophenyl)cyclopropane-1-carboxamido)benzamide] | 50 to 100 | 50 to 100 | 80 to 100 | A (80-100)
O=C(Nc1ccc(F)cc1F)c1cc(NC(=O)[C@H]2[C@H](c3ccc(Cl)c(Cl)c3)C2(Cl)Cl)ccc1Cl (relative stereo) [F39, trans-2-Chloro-5-(2,2-dichloro-3-(3,4-dichlorophenyl)cyclopropane-1-carboxamido)-N-(2,4-difluorophenyl)benzamide] | 50 to 100 | 50 to 100 | 80 to 100 | A (80-100)
O=C(Nc1ccc(F)cc1F)c1cc(NC(=O)[C@H]2[C@H](c3cc(Cl)c(Cl)c(Cl)c3)C2(Cl)Cl)ccc1Cl (relative stereo) [F40, trans-2-Chloro-5-(2,2-dichloro-3-(3,4,5-trichlorophenyl)cyclopropane-1-carboxamido)-N-(2,4-difluorophenyl)benzamide] | 50 to 100 | 50 to 100 | 80 to 100 | B (More than 0-Less than 80)
CC(C)c1ccccc1NC(=O)c1cc(NC(=O)[C@H]2[C@H](c3cc(Cl)cc(Cl)c3)C2(Cl)Cl)ccc1Cl (relative stereo) [F41, trans-2-Chloro-5-(2,2-dichloro-3-(3,5-dichlorophenyl)cyclopropane-1-carboxamido)-N-(2-isopropylphenyl)benzamide] | 50 to 100 | 50 to 100 | 0 to 80 | A (80-100)
CCc1cccc(C)c1NC(=O)c1cc(NC(=O)[C@H]2[C@H](c3cc(Cl)cc(Cl)c3)C2(Cl)Cl)ccc1Cl (relative stereo) [F42, trans-2-Chloro-5-(2,2-dichloro-3-(3,5-dichlorophenyl)cyclopropane-1-carboxamido)-N-(2-ethyl-6-methylphenyl)benzamide] | 50 to 100 | 50 to 100 | 0 to 80 | A (80-100)
CN(C(=O)c1cc(NC(=O)[C@H]2[C@H](c3cc(Cl)cc(Cl)c3)C2(Cl)Cl)ccc1Cl)c1ccc(F)cc1F (relative stereo) [F44, trans-2-Chloro-5-(2,2-dichloro-3-(3,5-dichlorophenyl)cyclopropane-1-carboxamido)-N-(2,4-difluorophenyl)-N-methylbenzamide] | 50 to 100 | 50 to 100 | 80 to 100 | A (80-100)
CN(C(=O)c1cc(NC(=O)[C@H]2[C@H](c3cc(Cl)cc(Cl)c3)C2(Cl)Cl)ccc1F)c1cccc(F)c1 (relative stereo) [F46, trans-5-(2,2-Dichloro-3-(3,5-dichlorophenyl)cyclopropane-1-carboxamido)-2-fluoro-N-(3-fluorophenyl)-N-methylbenzamide] | 50 to 100 | 50 to 100 | 0 to 80 | A (80-100)
CN(C(=O)c1cccc(NC(=O)[C@H]2[C@H](c3cc(Cl)cc(Cl)c3)C2(Cl)Cl)c1F)c1ccc(F)cc1 (relative stereo) [F47, trans-3-(2,2-Dichloro-3-(3,5-dichlorophenyl)cyclopropane-1-carboxamido)-2-fluoro-N-(4-fluorophenyl)-N-methylbenzamide] | 50 to 100 | 50 to 100 | 0 to 80 | B (More than 0-Less than 80)
O=C(Nc1cccc(F)c1)c1cc(NC(=O)[C@H]2[C@H](c3cc(Cl)c(Cl)c(Cl)c3)C2(Cl)Cl)ccc1Cl (relative stereo) [F50, trans-2-Chloro-5-(2,2-dichloro-3-(3,4,5-trichlorophenyl)cyclopropane-1-carboxamido)-N-(3-fluorophenyl)benzamide] | 50 to 100 | 50 to 100 | 0 to 80 | A (80-100)
O=C(Nc1cccc(F)c1)c1cc(NC(=O)[C@H]2[C@H](c3ccc(Cl)c(Cl)c3)C2(Cl)Cl)ccc1Cl (relative stereo) [F51, trans-2-Chloro-5-(2,2-dichloro-3-(3,4-dichlorophenyl)cyclopropane-1-carboxamido)-N-(3-fluorophenyl)benzamide] | 50 to 100 | 50 to 100 | 80 to 100 | A (80-100)
